# Laboratory results published in ChEMBL document CHEMBL1201862, “PubChem BioAssay data set” (2004).
# Activity calls are given as the source filed them.
# Tests used:
# Mu-type opioid receptor = Mu-type opioid receptor (Homo sapiens, UniProt P35372); type: functional, cell-based;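 also: U2OS cells with beta-arrestin recruitment to OPRM1 by beta-gal complementation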
# [1] = target: 5-hydroxytryptamine receptor 2A (Mus musculus, UniProt P35363); type: functional, cell-based;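 also: CHO-K1 cells with tagged receptor and beta-arrestin; agonist potency measured as compound-induced activation of the receptor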
# 5-hydroxytryptamine receptor 2A, sequence (P35363 whole entry): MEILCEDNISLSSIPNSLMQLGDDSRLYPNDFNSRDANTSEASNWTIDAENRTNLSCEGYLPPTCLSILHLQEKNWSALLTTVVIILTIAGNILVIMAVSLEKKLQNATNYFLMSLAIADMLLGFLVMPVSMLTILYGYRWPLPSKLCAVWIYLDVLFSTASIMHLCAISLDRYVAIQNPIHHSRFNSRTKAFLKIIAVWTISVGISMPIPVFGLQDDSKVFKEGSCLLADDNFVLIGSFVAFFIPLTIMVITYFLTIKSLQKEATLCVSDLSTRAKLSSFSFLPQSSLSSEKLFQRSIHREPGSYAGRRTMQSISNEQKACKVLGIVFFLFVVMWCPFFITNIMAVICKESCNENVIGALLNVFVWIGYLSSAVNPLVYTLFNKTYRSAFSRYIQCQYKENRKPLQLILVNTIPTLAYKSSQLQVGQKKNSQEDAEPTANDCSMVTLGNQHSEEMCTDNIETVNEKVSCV
# [2] = Luminescence Cell-Based Dose Confirmation HTS to Identify Activators of 5'UTR Stem-Loop Driven Alpha-Synuclein mRNA Translation in H4 Neuroglioblastoma Cells. [Related pubchem assays: 1829 (Project Summary), 1814 (Primary HTS)]; type: functional
# [3] = Luminescence Cell-Based Dose Response HTS to Identify Activators of Luciferase Translation or Activity in H4 […] Cells. [Related pubchem assays: 1829 (Project Summary), 1814 (Primary HTS)]; type: functional
# H4 = assay: Luminescence Cell-Based Dose Response HTS to Identify Activators of 5'UTR Stem-Loop Driven Prion Protein mRNA Translation in H4 Neuroglioblastoma Cells. [Related pubchem assays: 1829 (Project Summary), 1814 (Primary HTS)]; type: functional; conditions: Homo sapiens
# Beta-galactosidase = Beta-galactosidase (Escherichia coli, UniProt Q8VNN2); assay: Dose response counterscreen for EBI2 assay utilizing the enzyme, b-galactosidase.; type: functional
# Beta-galactosidase, sequence (Q8VNN2 whole entry): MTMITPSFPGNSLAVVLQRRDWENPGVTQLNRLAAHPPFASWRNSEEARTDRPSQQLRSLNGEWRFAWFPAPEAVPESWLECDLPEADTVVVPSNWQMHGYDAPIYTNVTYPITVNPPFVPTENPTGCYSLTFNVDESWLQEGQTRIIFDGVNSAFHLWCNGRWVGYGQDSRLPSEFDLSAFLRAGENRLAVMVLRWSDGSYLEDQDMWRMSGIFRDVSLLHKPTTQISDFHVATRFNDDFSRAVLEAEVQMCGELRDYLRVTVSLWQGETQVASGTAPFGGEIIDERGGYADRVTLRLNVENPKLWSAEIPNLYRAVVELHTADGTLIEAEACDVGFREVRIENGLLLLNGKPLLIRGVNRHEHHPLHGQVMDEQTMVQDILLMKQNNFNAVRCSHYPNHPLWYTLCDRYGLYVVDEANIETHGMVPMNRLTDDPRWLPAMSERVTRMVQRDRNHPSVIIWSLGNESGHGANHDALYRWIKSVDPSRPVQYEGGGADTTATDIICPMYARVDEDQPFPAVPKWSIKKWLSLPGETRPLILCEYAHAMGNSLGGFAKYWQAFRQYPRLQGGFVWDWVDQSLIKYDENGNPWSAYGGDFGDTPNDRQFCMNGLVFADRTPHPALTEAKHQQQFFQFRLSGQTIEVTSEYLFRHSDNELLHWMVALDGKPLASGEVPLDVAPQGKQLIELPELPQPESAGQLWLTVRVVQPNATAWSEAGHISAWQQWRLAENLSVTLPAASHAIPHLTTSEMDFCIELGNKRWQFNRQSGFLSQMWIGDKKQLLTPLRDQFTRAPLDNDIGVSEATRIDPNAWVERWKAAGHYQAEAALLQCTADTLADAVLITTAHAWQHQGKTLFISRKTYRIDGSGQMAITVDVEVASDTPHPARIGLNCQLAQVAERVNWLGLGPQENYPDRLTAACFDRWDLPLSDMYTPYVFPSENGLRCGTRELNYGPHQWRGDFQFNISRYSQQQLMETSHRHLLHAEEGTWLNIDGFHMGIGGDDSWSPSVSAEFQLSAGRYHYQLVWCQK
# Fatty acid synthase [4] = target: T1, Fatty acid synthase (Homo sapiens, UniProt P49327); assay: inhibition of human FAS-TE enzyme activity – biochemical, endpoint fluorescence intensity, uHTS hits, dose response (AID 624327); type: functional;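 also: fluorescence from hydrolysis of an O-methyl fluorescein acyl ester substrate by the enzyme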
# T1 sequence (P49327 whole entry): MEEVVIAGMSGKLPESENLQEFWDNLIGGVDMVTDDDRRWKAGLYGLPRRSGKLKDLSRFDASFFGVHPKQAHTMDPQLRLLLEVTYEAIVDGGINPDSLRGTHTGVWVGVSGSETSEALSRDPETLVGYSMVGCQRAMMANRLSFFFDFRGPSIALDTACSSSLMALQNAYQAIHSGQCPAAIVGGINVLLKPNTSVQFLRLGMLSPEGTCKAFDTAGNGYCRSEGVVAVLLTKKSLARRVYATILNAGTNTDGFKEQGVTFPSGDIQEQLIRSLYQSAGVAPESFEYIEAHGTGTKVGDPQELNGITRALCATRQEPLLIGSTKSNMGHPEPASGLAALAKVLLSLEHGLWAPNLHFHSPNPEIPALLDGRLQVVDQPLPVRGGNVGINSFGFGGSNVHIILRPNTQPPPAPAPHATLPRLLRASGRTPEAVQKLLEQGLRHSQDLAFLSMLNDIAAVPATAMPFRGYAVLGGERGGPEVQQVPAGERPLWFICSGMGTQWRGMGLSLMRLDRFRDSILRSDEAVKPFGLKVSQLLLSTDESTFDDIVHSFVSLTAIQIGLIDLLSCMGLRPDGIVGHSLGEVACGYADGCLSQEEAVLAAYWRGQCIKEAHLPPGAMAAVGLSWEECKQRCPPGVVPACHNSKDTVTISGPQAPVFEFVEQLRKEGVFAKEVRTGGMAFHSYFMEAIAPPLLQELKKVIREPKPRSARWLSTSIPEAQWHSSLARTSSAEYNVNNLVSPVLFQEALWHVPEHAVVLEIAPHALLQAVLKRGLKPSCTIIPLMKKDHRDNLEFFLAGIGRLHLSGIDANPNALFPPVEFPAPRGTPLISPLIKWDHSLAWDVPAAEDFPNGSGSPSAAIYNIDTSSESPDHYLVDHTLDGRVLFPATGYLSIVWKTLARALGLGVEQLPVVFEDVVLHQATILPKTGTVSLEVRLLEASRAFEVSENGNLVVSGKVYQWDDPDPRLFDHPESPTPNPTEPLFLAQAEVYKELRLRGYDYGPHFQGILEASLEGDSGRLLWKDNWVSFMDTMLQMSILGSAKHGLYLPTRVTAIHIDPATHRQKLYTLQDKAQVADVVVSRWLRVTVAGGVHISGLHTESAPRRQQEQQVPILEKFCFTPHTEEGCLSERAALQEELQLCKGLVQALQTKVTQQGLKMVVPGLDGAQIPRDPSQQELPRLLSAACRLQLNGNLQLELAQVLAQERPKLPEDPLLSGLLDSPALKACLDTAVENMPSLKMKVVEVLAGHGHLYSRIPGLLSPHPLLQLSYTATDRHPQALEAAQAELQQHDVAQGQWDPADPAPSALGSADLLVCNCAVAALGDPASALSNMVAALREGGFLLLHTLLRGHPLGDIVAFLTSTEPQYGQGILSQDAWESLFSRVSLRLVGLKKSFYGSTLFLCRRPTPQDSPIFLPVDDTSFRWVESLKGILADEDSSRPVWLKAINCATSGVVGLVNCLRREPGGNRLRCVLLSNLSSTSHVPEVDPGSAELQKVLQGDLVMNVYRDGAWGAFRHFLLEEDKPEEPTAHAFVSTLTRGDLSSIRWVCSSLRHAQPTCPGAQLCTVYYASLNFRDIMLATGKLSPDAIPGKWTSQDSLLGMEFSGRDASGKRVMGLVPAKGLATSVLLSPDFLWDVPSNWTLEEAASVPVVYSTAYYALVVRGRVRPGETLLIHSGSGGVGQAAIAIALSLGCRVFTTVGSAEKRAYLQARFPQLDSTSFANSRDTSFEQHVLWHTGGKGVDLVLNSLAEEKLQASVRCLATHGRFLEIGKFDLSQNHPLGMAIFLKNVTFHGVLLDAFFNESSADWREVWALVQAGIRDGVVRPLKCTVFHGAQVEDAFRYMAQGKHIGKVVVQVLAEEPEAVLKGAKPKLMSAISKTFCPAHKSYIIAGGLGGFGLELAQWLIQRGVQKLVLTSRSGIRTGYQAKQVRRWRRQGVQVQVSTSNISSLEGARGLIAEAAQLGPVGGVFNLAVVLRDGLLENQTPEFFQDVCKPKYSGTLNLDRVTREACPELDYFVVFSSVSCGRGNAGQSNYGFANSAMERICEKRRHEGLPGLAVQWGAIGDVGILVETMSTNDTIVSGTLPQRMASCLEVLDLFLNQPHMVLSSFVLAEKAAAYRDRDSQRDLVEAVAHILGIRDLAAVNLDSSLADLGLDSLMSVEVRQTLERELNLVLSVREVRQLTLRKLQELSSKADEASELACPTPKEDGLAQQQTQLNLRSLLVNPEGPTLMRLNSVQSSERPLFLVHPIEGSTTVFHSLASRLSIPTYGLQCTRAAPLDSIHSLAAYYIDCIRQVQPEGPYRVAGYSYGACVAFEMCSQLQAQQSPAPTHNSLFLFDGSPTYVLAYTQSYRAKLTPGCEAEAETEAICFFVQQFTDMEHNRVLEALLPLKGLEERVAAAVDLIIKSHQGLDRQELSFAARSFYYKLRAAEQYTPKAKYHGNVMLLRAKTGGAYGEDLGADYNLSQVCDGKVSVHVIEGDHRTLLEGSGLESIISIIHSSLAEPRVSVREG
# Fatty acid synthase [5] = target: T1, Fatty acid synthase; assay: inhibition of human FAS-TE enzyme activity – biochemical, kinetic fluorescence intensity, dose response (AID 624326); type: functional;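 also: rate of fluorescence rise from hydrolysis of a fluorogenic O-methyl fluorescein ester substrate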
# [6] = intracellular Trypanosoma cruzi inhibitors in host cells – cell-based, plate reader, cherry-pick samples, set 3, dose response (AID 651818); type: functional;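 also: compounds incubated with infected cells for about four days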
# [7] = target: Glucose-6-phosphate 1-dehydrogenase (Homo sapiens, UniProt P11413); assay: inhibition of Homo sapiens G6PD, dose series – biochemical, fluorescence, selectivity assay for P. falciparum G6PD inhibitor project, dose response (AID 504792); type: functional
# Streptococcus = assay: GAS UMAA2166 growth inhibition – luminescence, BacTiterGlo, counter-screen for streptokinase expression inhibitor project, dose response (AID 1915); type: functional, organism-based;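 also: potency for reduction of bacterial viability or growth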
# [8] = target: T2, Probable nicotinate-nucleotide adenylyltransferase (Staphylococcus aureus (strain N315), UniProt P65502); type: functional, Staphylococcus aureus subsp. aureus N315; conditions: read-out: IC50_Mean;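 as to IC50 Mean: confirmatory dose-response retesting of NadD inhibitor hits first found in an ultra-high-throughput screen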
# T2 sequence (P65502 whole entry): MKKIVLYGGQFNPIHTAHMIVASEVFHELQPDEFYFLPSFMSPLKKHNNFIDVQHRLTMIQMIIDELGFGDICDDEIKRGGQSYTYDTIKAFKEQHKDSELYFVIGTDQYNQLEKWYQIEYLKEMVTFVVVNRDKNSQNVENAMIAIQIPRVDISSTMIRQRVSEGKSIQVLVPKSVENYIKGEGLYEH
# [9] = test system: Streptococcus sp. 'group A'; assay: Streptococcus pyogenes SK(-)GAS viability under kanamycin – luminescence, BacTiterGlo, confirmation, counter-screen for streptokinase expression inhibitor project, dose response (AID 1900); type: functional, organism-based
# Vero = assay: cells; type: functional; conditions: Chlorocebus sabaeus
# [10] = target: T3, Serine/threonine-protein phosphatase (Candida dubliniensis (strain CD36 / CBS 7987 / NCPF 3949 / NRRLY-17841) (Yeast), UniProt B9W6M3); assay: blockers of CaCl2-induced CDRE-lacZ signaling – S. cerevisiae, luminescence, secondary, dose response (AID 2388); type: functional, cell-based;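 also: yeast reporter cells carrying a calcineurin-responsive lacZ construct stimulated with calcium chloride; luminescent beta-galactosidase reporter signal in whole cells rather than isolated phosphatase activity; potency for inhibition where a drop in reporter signal means calcineurin blockade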
# T3 sequence (B9W6M3 whole entry): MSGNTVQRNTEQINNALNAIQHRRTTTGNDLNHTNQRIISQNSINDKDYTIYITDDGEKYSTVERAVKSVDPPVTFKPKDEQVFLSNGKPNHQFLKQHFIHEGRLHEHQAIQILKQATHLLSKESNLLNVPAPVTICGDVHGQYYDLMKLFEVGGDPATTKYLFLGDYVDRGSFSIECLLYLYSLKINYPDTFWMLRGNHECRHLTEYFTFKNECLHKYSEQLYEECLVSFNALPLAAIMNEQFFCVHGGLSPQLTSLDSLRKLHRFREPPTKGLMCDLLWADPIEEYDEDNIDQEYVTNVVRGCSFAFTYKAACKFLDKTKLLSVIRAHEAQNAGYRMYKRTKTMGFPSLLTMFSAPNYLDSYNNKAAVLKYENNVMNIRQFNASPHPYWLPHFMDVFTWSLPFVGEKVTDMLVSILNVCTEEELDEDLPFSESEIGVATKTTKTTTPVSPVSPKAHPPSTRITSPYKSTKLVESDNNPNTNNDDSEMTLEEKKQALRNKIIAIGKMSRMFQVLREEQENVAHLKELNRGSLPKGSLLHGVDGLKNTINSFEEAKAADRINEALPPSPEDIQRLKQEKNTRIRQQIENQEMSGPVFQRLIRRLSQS
# [11] = target: T2, Probable nicotinate-nucleotide adenylyltransferase; type: functional, Staphylococcus aureus subsp. aureus N315
# [12] = NIH-3T3 fibroblast cytotoxicity, dose response, cytotoxicity control, cell-based, fluorescence, Alamar Blue, secondary assay (AID 2327); type: functional;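 also: NIH-3T3 mouse fibroblasts cultured with fluconazole at 8 µg/mL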
# [13] = target: ATP-dependent molecular chaperone HSP82 (Candida albicans (strain WO-1) (Yeast), UniProt C4YTQ8); assay: steroid-induced GRE reporter decrease in yeast – S. cerevisiae, luminescence, Hsp90 inhibitor project, dose response (AID 2400); type: functional, cell-based;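 also: beta-galactosidase luminescence from glucocorticoid response element reporter as proxy for Hsp90 function; inhibitor potency where signal loss means Hsp90 inhibition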
# [14] = fluconazole-exposed Candida albicans growth modulators – fluorescence, retest, confirmation (AID 2467); type: functional, cell-based
# [15] = cAMP pathway inhibition in counterscreen cell line – TR-FRET cAMP detection, counter-screen for MC4R biased antagonist project, dose response (AID 602305); type: functional, cell-based;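 also: U2OS cells stimulated with forskolin near its EC80 as the cAMP inducer; potency is for inhibition of forskolin-stimulated cAMP signaling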
# [16] = target: T4, Rac GTPase-activating protein 1 (Homo sapiens, UniProt Q9H0H5); assay: blockers of MgcRacGAP-driven Rac1 GTP hydrolysis – biochemical, ADP Hunter fluorescence, primary and confirmatory, confirmation (AID 624330); type: functional
# T4 sequence (Q9H0H5 whole entry): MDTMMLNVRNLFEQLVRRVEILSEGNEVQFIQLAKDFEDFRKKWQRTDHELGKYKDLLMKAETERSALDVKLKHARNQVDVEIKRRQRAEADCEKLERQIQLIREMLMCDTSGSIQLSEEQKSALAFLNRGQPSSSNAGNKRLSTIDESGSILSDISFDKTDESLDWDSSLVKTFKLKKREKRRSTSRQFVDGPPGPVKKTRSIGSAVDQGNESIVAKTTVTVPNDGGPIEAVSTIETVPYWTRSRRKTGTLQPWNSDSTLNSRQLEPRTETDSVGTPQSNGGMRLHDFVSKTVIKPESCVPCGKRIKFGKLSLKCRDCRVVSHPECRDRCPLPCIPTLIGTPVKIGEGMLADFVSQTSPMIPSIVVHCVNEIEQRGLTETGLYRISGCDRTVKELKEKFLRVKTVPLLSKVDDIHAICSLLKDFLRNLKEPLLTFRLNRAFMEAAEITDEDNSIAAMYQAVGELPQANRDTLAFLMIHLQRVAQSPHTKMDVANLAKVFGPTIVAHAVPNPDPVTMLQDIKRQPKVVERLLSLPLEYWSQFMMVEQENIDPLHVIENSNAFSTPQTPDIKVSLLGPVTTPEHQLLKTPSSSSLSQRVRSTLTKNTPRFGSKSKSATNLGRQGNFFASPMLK
# Genome polyprotein = Genome polyprotein (dengue virus type 2, UniProt P29990); assay: flavivirus cap methylation enzyme inhibition – biochemical, confirmation dose response, primary screen (AID 588689); type: functional
# Melanocortin receptor 4 = Melanocortin receptor 4 (Homo sapiens, UniProt P32245); assay: inhibitors of MC4R cAMP signaling – cell-based, TR-FRET, biased antagonists, dose response (AID 602298); type: functional;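 also: antagonist potency against agonist-stimulated cAMP production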
# Melanocortin receptor 4, sequence (P32245 whole entry): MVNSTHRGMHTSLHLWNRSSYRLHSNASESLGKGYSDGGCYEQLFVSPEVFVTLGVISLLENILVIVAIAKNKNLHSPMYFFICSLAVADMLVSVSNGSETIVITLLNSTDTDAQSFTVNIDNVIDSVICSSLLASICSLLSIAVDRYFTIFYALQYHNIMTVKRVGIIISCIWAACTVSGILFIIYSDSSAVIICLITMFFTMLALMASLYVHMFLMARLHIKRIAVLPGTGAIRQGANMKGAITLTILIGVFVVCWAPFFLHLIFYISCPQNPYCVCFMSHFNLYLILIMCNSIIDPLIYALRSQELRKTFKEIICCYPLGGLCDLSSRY
# [17] = Trypanosoma cruzi growth suppression in host cells – NIH3T3 host cells, beta-gal luminescence, confirmation (AID 2044); type: functional, cell-based;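 also: intracellular parasites grown in NIH/3T3 mouse fibroblasts as host cells; luminescent beta-galactosidase reporter signal from transgenic T. cruzi replicating inside host cells; inhibitors lower the luminescence signal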
# [18] = NIH3T3 cell viability loss – ATP luminescence, mouse fibroblasts, counter-screen, dose response (AID 2010); type: functional, cell-based;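 also: cells exposed to compound for about 90 hours before reading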
# Protein skinhead-1 = target: T5, Protein skinhead-1 (Caenorhabditis elegans, UniProt P34707); type: functional
# T5 sequence (P34707 whole entry): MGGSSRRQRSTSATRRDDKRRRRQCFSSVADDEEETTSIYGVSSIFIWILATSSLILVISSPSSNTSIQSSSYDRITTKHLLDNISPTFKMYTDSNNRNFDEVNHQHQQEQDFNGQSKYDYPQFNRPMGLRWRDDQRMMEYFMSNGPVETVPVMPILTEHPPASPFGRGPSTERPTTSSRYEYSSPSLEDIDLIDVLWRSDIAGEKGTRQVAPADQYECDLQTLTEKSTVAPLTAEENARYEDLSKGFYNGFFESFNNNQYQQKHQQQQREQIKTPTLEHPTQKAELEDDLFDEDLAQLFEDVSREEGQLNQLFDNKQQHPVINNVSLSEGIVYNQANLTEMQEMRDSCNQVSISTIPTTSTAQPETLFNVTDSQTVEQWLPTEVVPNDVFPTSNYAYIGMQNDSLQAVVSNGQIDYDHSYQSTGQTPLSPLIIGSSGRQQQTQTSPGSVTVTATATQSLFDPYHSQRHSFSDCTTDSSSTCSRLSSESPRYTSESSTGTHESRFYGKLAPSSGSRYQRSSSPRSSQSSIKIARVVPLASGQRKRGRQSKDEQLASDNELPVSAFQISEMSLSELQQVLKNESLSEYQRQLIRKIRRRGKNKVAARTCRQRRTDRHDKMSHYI
# Mu-type opioid receptor, sequence (P35372 whole entry): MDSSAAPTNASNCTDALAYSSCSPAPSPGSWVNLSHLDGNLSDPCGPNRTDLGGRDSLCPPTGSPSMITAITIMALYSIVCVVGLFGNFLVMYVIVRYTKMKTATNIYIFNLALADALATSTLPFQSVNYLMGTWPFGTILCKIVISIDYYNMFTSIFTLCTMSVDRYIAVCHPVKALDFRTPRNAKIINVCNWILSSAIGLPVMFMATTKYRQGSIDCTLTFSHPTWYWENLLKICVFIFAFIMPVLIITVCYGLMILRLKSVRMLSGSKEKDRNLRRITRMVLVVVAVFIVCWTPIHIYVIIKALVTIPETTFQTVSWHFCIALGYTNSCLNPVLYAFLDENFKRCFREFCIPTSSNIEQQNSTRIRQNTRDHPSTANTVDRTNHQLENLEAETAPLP
structure (smiles),measurement,setting,value
CN(c1ccc(C(=O)N2CCN(Cc3ccccc3)CC2)cc1)S(=O)(=O)c1ccc(Cl)cc1,EC50,Mu-type opioid receptor,92.4 µM (inactive)
same,EC50,[1],2.82 µM (active)
CN1CCc2c(sc(/N=C/c3cc(Cl)ccc3O)c2C#N)C1,EC50,Mu-type opioid receptor,92.4 µM (inactive)
same,EC50,[1],76.1 µM (inactive)
same,EC50,[2],7.13 µM (active)
same,EC50,[3],5.07 µM (active)
same,EC50,H4,34.8 µM (active)
COc1ccc(N2CCN(C(=O)c3ccc4[nH]c(C)c(C)c4c3)CC2)cc1,IC50,Beta-galactosidase,> 80 µM (inactive)
COCCN1C(=O)c2cc(C(=O)Nc3ccc(C)c(F)c3)ccc2C1Nc1ccc(C)c(F)c1 (centres undefined),IC50,Beta-galactosidase,> 80 µM (inactive)
C=CCOc1ccc(C(=O)/C=C2/C(=O)Nc3ccccc32)cc1,IC50,Beta-galactosidase,> 80 µM (inactive)
COc1cc(OC)c(N2CC(C(=O)NCCC3=CCCCC3)CC2=O)cc1Cl (centres undefined),IC50,Fatty acid synthase [4],9.83 µM (active)
same,IC50,Fatty acid synthase [5],11.8 µM (active)
C[C@H]1CN([C@@H](C)CO)C(=O)Cc2cc(NC(=O)Nc3cccc4ccccc34)ccc2O[C@@H]1CN(C)Cc1ccc(-c2ccccc2)cc1,AC50,[6],7.08 µM (active)
N#CC(CCc1ccccc1[N+](=O)[O-])(CCc1ccccc1[N+](=O)[O-])C(N)=O,IC50,Fatty acid synthase [4],11.4 µM (active)
same,IC50,Fatty acid synthase [5],12 µM (active)
NC1CCc2cc(O)c(O)cc2C1 (centres undefined),IC50,[7],> 80 µM (inactive)
same,EC50,Mu-type opioid receptor,92.5 µM (inactive)
same,EC50,[1],0.0131 µM (active)
CC1(C(=O)Nc2ccc(Cl)c(Cl)c2)CCN1C(=O)CC1CCCC1 (centres undefined),IC50,Fatty acid synthase [4],8.5 µM (active)
same,IC50,Fatty acid synthase [5],4.39 µM (active)
CNCCc1c[nH]c2ccc(O)cc12,EC50,Mu-type opioid receptor,92.4 µM (inactive)
same,EC50,[1],1.73 µM (active)
C[C@H](CO)N1C[C@H](C)[C@@H](CN(C)Cc2ccncc2)Oc2c(NC(=O)c3ccc(-c4nccs4)cc3)cccc2C1=O,AC50,[6],20 µM (inactive)
Cc1ccc2[nH]c(SCC(=O)Nc3ccc(F)c([N+](=O)[O-])c3)nc2c1,IC50,Fatty acid synthase [4],6.64 µM (active)
same,IC50,Fatty acid synthase [5],8 µM (active)
Cc1cccc2sc(NNC(=O)c3cc(-c4cccs4)nc4ccccc34)nc12,EC50,Streptococcus,2.14 µM (active)
same,IC50,[8],26.7 µM (active)
same,EC50,[9],889 nM (active)
same,CC50,Vero,11.5 µM (active)
same,EC50,[10],> 180 µM (inactive)
same,IC50,[11],13.3 µM (active)
same,EC50,[12],10.7 µM (inconclusive)
same,EC50,[13],16.2 µM (active)
same,EC50,[14],507 nM (active)
Cc1noc(C)c1S(=O)(=O)Nc1ccc2c(c1)CC(=O)N([C@H](C)CO)C[C@@H](C)[C@@H](CN(C)Cc1ccc(C(F)(F)F)cc1)O2,AC50,[6],5.96 µM (active)
CC1(C)CC(=O)C(C(C2=C(O)CC(C)(C)CC2=O)c2cccs2)C(=O)C1 (centres undefined),IC50,[15],> 64.6 µM (inactive)
same,IC50,[16],73 µM (active)
same,IC50,Genome polyprotein,46.3 µM (active)
same,IC50,Melanocortin receptor 4,29.9 µM (inactive)
[O-][S+](c1ccccc1O)[S+]([O-])c1ccccc1O (centres undefined),IC50,[7],54.1 µM (inactive)
same,IC50,[8],9.15 µM (active)
same,IC50,Genome polyprotein,68 µM (active)
same,IC50,[11],3.33 µM (active)
COC(=O)C1CCN(CCCOc2ccc(CN3CCN(c4ccc([N+](=O)[O-])cc4)CC3)cc2)CC1,EC50,Mu-type opioid receptor,92.6 µM (inactive)
same,EC50,[1],0.57 µM (active)
C[C@H](CO)N1C[C@H](C)[C@H](CN(C)Cc2ccc(C(F)(F)F)cc2)Oc2ccc(NC(=O)Nc3cccc4ccccc34)cc2CC1=O,AC50,[6],1.05 µM (active)
C[C@@H]1CN([C@@H](C)CO)C(=O)Cc2cc(NC(=O)Nc3ccc(F)cc3)ccc2O[C@@H]1CN(C)Cc1ccc(C(F)(F)F)cc1,AC50,[6],4.91 µM (active)
O=C(Nc1nccs1)c1cc(S(=O)(=O)N2CCOCC2)c(Cl)cc1Cl,IC50,[15],> 64.6 µM (inactive)
same,IC50,Melanocortin receptor 4,> 64.6 µM (inactive)
Cc1nnc(-c2cccc(Br)c2)c2cn(-c3cccc(Br)c3)nc12,IC50,[15],> 64.6 µM (inactive)
same,EC50,[17],1.65 µM (active)
same,EC50,[18],> 60 µM (not active)
same,IC50,Melanocortin receptor 4,> 64.6 µM (inactive)
same,IC50,Protein skinhead-1,> 100 µM (inactive)
